Where “and” joins values, the source holds several entries; their conditions need not be identical. Equal values may be shown once.
target: SARS-CoV-2 Main Protease (SARS-CoV-2) (UniProt P0DTD1)

| Structure (SMILES) | IC50 |
| --- | --- |
| O=C(Cc1cc(Cl)cc(Nc2c(F)cc(F)cc2[N+](=O)[O-])c1)Nc1cncc2ccccc12 | 2.04 µM |
| O=C(Nc1cncc2ccccc12)[C@H]1CCNc2cc(Cl)c(Cl)cc21 (stereo in doubt) | > 99.5 µM |
| CC(C)(C)c1ccc(N(C(=O)c2nnc(O)cc2O)C(C(=O)NCCc2cccc(F)c2)c2cccnc2)cc1 (stereo unspecified) | > 99.5 µM |
| O=C(Cc1cc(Cl)cc(Nc2cc(Cl)c(O)c(Cl)c2)c1)Nc1cncc2ccccc12 | 6.9 µM |
| Cc1ccc(NC2=C(c3ccccc3)C(=O)N(Cc3cccnc3)C2=O)c(C)c1 | > 99.5 µM |
| O=C(Cc1cc(Cl)cc(NCc2ccc(F)c(Cl)c2)c1)Nc1cncc2ccccc12 | 2.49 µM |
| COc1ccc(-c2ccccc2S(=O)(=O)N2CCN(C(=O)CCl)CC2)cc1 | 0.551 µM |
| COc1ccccc1OCCC(=O)Nc1cncc2ccccc12 | 93.6 µM and > 99.5 µM |
| Cc1nc(N2CCN(S(=O)(=O)c3ccccc3)CC2)sc1S(N)(=O)=O | > 99.5 µM |
| O=C(Nc1cncc2ccccc12)C12CCC(O1)c1ccc(Cl)cc12 (stereo unspecified) | 11.1 µM |
| O=C(Cc1cc(Cl)cc(NCCc2ccc(Cl)c(Cl)c2)c1)Nc1cncc2ccccc12 | 5.41 µM |
| O=C(N/N=c1\cc[nH]c2ccccc12)c1ccc2ncccc2c1 | > 99.5 µM |
| O=C(Oc1cncc2ccccc12)C1CCOc2ccc(Cl)cc21 (stereo unspecified) | 0.522 µM |
| O=C(O)CCc1cc2c(cc1S(=O)(=O)N1CCN(c3ccccc3)CC1)OCO2 | > 99.5 µM |
| O=C(c1cc(=O)[nH]c2ccccc12)N1CCN(c2ccccc2F)CC1 | 24 µM |
| Cn1ccc(CN2Cc3ccc(Cl)cc3C(C(=O)Nc3cncc4ccc(F)cc34)C2)n1 (stereo unspecified) | 1.35 µM |
| O=C(NCc1ccc2c(c1)OCO2)c1nc(S(=O)(=O)Cc2ccccc2)ncc1Cl | 1.4 µM |
| Cc1nccn1Cc1ccc2c(NC(=O)C3CCOc4ccc(Cl)cc43)cncc2c1 (stereo unspecified) | 5.32 µM |
| CCc1ccc([N+](=O)[O-])cc1Nc1cc(Cl)cc(CC(=O)Nc2cncc3ccccc23)c1 | 1.71 µM |
| O=C1N(c2cncc3ccccc23)CCC12CN(Cc1nncs1)Cc1ccc(Cl)cc12 (stereo unspecified) | 0.263 µM |
| CC(C)(C)c1ccc(N(C(=O)c2c[nH]c(=O)cn2)C(C(=O)NCCc2cccc(F)c2)c2cccnc2)cc1 (stereo unspecified) | 77.1 µM |
| O=C(Nc1cccc2cc[nH]c12)c1cccc2[nH]c(=O)oc12 | > 99.5 µM |
| Cc1cc(F)cc2cncc(NC(=O)Cc3cccc(Cl)c3)c12 | 0.851 µM |
| N#CC1(CS(=O)(=O)N2Cc3ccc(Cl)cc3C(C(=O)Nc3cncc4cccc(Cl)c34)C2)CC1 (stereo unspecified) | 0.259 µM |
| O=C(Cc1cccc(Cl)c1F)Nc1cncc2ccccc12 | 23.6 µM |
| Cc1cc(Nc2cc(Cl)cc(CC(=O)Nc3cncc4ccccc34)c2)ncc1I | 2.35 µM |

| Structure (SMILES) | IC50 |
| --- | --- |
| COc1cnc(C#N)nc1 | > 99.5 µM |
| CC(C)(C)c1ccc(N(C(=O)c2cocn2)C(C(=O)NCCc2cccc(F)c2)c2cnccn2)cc1 (stereo unspecified) | 1.21 µM |
| N#CCN1Cc2ccc(Cl)cc2C(C(=O)Nc2cncc3ccccc23)C1 (stereo unspecified) | 0.335 µM |
| C=CC(=O)N(c1ccc(C(F)(F)F)cc1)C(C(=O)NCCc1cccc(F)c1)c1cccnc1 (stereo unspecified) | 20.1 µM |
| O=C(Nc1cncc2ccccc12)C1CN(S(=O)(=O)N2CCCC2CO)Cc2ccc(Cl)cc21 (stereo unspecified) | 1.14 µM |
| CC(C)(C#N)CS(=O)(=O)N1Cc2ccc(Cl)cc2[C@@H](C(=O)Nc2cncc3ccccc23)C1 (stereo in doubt) | 13.2 µM |
| CCOc1ccc(N(C(=O)c2cnc[nH]2)C(C(=O)NCCc2cccc(F)c2)c2cccnc2)cn1 (stereo unspecified) | > 99 µM |
| Cn1cnc2cc(N(C(=O)c3cnc[nH]3)C(C(=O)NCCc3cccc(F)c3)c3cccnc3)ccc21 (stereo unspecified) | > 99 µM |
| O=C(NCCc1cccc(F)c1)C(c1cccnc1)N(C(=O)c1cocn1)c1ccc2c(c1)CCC(=O)N2CC(F)F (stereo unspecified) | 24.5 µM |
| O=C(Nc1cccnc1)[C@@H](c1ccccc1)N1Cc2ccccc2C1=O (stereo in doubt) | > 99.5 µM |
| C=CC(=O)N(c1ccc(C(C)(C)C)cc1)C(C(=O)NCCc1cccc(F)c1)c1cncc(Cl)c1 (stereo unspecified) | 11.5 µM |
| CN(C)CC1(C(=O)Nc2cncc3ccccc23)CCOc2ccc(Cl)cc21 (stereo unspecified) | 11.5 µM |
| C[n+]1ccn(CCc2cccc(Cl)c2)c1C#N | > 99.5 µM |
| CN(Cc1cccc2ccccc12)c1cc(Cl)cc(CC(=O)Nc2cncc3ccccc23)c1 | 8.79 µM |
| O=C(Cc1cc(Cl)cc(Nc2ccccc2I)c1)Nc1cncc2ccccc12 | 2.17 µM |
| Cc1cc(NC(=O)C2CCOc3ccc(Cl)cc32)ncc1N (stereo unspecified) | > 99.5 µM |
| Cc1cccc2cncc(N3CCC4(CCOc5ccc(Cl)cc54)C3)c12 (stereo unspecified) | > 99.5 µM |
| Cc1cccc(CN2CCN(c3nc4ccccc4nc3C)CC2)c1 | > 99.5 µM |
| CC(Cn1ccnc1C#N)c1cccc(Cl)c1 (stereo unspecified) | > 99.5 µM |
| Cn1ncc2c(NCc3ccc4cccnc4c3)ncnc21 | > 99.5 µM |
| C=CC(=O)N(c1cc(C(C)(C)C)on1)C(C(=O)NCCc1cccc(F)c1)c1cncc(C#N)c1 (stereo unspecified) | > 99.5 µM |
| Cc1csc2ncc(C(=O)N3C4CCC3c3ccccc34)c(=O)n12 | > 99.5 µM |
| O=C(Cc1cc(Cl)cc(Nc2ccc(Cl)nc2Cl)c1)Nc1cncc2ccccc12 | 2.31 µM |
| O=C(Cc1cc(Cl)cc(Br)c1)Nc1cncc2ccccc12 | > 9.95 µM |
| O=C(Nc1cncc2ccccc12)N1CCOc2ccc(Cl)cc21 | 11.4 µM |

Reference: the COVID Moonshot data (paper PMC7615835)
